The text below walks through data of US9682087B2 (The Population Council, Inc., priority 2009, dated 2017).

In data set [1] the test system is androgenic, estrogenic or glucocorticoid actions. The conditions noted are these: at therapeutic levels; cited from earlier work.
The subject of a further data set is ovulation. The data set is described as follows: Ovulation blockade by NES at given serum level. Format: in vivo. The settings on record: doses leading to serum levels of 250 pmol/L.
Data set [2] in a line: Absorption of the hormones applied onto the skin. Format: in vivo. On the procedure:
These levels of these hormones applied onto the skin result in 10% absorption, and thus correspond to a daily dose of about 300 to 450 μg of the progestin and about 100 to 150 μg of the estrogen. Expressed in a different manner, it would also be possible to equate these levels of absorption of these hormones to corresponding plasma levels in the patient.

For data set [3] the following is noted: oral administration; cited from earlier work.

For `C=C1C[C@H]2[C@@H]3CCC4=CC(=O)CC[C@@H]4[C@H]3CC[C@]2(C)[C@@]1(OC(C)=O)C(C)=O` [NES, 16-methylene-17α-acetoxy-19-norpregn-4-ene-3,20-dione], the “androgenic, estrogenic or glucocorticoid actions” value in data set [1] was “does not carry androgenic, estrogenic or glucocorticoid actions”. In addition, the “subjects in whom ovulation was blocked” value in the data set on ovulation is “more than 95%”. In addition, the absorption rate result in data set [2] (applied in a transdermal manner) is given as “approximately 10%”. Besides, in data set [3], the “activity when administered orally” value was “not active”.

Consider `C[C@]12CC[C@@H]3c4ccc(O)cc4CC[C@H]3[C@@H]1CC[C@@H]2O` [estradiol, 17β-estradiol], for which the absorption rate result in data set [2] (female, human, in vivo) is “approximately 10%”.
